# What was measured:
# [1] = target: Fibroblast growth factor receptor 2 (Homo sapiens) (UniProt P21802); test: Inhibition of FGFR2 at 1 uM
# [2] = target: Receptor-type tyrosine-protein kinase FLT3 (Homo sapiens) (UniProt P36888); test: Inhibition of FLT3 at 1 uM
# [3] = target: Glycogen synthase kinase-3 alpha (Homo sapiens) (UniProt P49840); test: Inhibition of GSK3A at 1 uM
# Insulin receptor [4] = target: T1, Insulin receptor (Homo sapiens, UniProt P06213); test: Inhibition of INSR at 1 uM
# [5] = target: Tyrosine-protein kinase ITK/TSK (Homo sapiens) (UniProt Q08881); test: Inhibition of ITK at 1 uM
# Sequence of Tyrosine-protein kinase ITK/TSK (Homo sapiens) (Q08881 whole entry, the tested form may be a part): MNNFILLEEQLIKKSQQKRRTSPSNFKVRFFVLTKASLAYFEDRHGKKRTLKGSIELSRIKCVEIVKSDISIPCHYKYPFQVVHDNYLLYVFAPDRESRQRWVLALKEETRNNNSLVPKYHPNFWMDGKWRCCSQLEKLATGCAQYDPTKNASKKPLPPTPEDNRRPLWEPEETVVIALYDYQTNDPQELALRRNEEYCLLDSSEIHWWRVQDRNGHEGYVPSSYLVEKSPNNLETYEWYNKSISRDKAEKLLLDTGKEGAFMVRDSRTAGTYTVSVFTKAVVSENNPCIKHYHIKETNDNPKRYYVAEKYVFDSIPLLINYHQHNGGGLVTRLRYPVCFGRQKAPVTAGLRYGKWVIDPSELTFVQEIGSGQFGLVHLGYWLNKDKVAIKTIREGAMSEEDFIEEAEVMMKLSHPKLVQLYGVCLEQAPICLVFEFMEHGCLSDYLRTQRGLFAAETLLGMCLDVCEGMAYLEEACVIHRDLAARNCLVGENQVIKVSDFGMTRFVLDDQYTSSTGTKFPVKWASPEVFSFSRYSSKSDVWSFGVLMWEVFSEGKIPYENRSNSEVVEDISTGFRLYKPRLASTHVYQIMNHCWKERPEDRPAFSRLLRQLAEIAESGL
# [6] = target: Tyrosine-protein kinase JAK2 (Homo sapiens) (UniProt O60674); test: Inhibition of JAK2 domain 2 at 1 uM
# [7] = target: Mitogen-activated protein kinase 8 (Homo sapiens) (UniProt P45983); test: Inhibition of JNK1 at 1 uM
# [8] = target: Mitogen-activated protein kinase 9 (Homo sapiens) (UniProt P45984); test: Inhibition of JNK2 at 1 uM
# [9] = target: Mitogen-activated protein kinase 10 (Homo sapiens) (UniProt P53779); test: Inhibition of JNK3 at 1 uM
# [10] = target: Mast/stem cell growth factor receptor Kit (Homo sapiens) (UniProt P10721); test: Inhibition of KIT at 1 uM
# [11] = test system: Mast/stem cell growth factor receptor Kit (Homo sapiens), P10721 [V559D,T670I]; test: Inhibition of KIT V559D T670I at 1 uM
# [12] = target: Serine/threonine-protein kinase STK11 (Homo sapiens) (UniProt Q15831); test: Inhibition of LKB1 at 1 uM
# [13] = target: Mitogen-activated protein kinase 14 (Homo sapiens) (UniProt Q16539); test: Inhibition of p38 alpha at 1 uM
# [14] = target: Mitogen-activated protein kinase 11 (Homo sapiens) (UniProt Q15759); test: Inhibition of p38 beta at 1 uM
# [15] = target: Serine/threonine-protein kinase PAK 1 (Homo sapiens) (UniProt Q13153); test: Inhibition of PAK1 at 1 uM
# [16] = target: Serine/threonine-protein kinase PAK 4 (Homo sapiens) (UniProt O96013); test: Inhibition of PAK4 at 1 uM
# Sequence of Serine/threonine-protein kinase PAK 4 (Homo sapiens) (O96013 whole entry, looked up): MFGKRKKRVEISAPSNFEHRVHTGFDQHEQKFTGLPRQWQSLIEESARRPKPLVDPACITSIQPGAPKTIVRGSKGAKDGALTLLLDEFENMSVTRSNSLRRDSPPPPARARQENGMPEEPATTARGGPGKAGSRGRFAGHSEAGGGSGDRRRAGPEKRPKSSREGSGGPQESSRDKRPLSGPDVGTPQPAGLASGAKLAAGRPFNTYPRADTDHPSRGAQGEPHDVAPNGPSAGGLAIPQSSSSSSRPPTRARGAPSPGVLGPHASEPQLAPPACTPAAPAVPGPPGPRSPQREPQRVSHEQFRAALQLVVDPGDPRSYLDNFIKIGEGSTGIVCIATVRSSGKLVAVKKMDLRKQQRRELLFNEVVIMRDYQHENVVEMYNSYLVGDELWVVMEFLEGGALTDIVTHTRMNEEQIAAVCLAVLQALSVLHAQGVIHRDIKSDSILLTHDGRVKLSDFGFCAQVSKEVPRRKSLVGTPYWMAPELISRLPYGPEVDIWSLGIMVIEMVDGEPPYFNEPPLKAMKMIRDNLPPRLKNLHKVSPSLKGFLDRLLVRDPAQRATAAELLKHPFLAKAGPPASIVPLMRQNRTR
# [17] = target: Platelet-derived growth factor receptor alpha (Homo sapiens) (UniProt P16234); test: Inhibition of PDGFRalpha at 1 uM
# [18] = target: 3-phosphoinositide-dependent protein kinase 1 (Homo sapiens) (UniProt O15530); test: Inhibition of PDPK1 at 1 uM
# [19] = target: Serine/threonine-protein kinase pim-2 (Homo sapiens) (UniProt Q9P1W9); test: Inhibition of PIM2 at 1 uM
# Sequence of Serine/threonine-protein kinase pim-2 (Homo sapiens) (Q9P1W9 whole entry, looked up): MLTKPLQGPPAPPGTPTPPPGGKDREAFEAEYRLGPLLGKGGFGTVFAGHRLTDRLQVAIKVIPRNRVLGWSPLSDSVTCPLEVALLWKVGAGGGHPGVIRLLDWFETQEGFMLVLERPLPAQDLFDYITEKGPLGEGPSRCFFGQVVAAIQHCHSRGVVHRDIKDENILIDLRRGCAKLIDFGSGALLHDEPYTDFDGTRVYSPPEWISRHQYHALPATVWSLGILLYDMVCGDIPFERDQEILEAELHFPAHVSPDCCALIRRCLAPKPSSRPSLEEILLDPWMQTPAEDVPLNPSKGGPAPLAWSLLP
# [20] = target: Serine/threonine-protein kinase PLK1 (Homo sapiens) (UniProt P53350); test: Inhibition of PLK1 at 1 uM
# [21] = target: Protein kinase C eta type (Homo sapiens) (UniProt P24723); test: Inhibition of PRKCH at 1 uM
# [22] = target: Proto-oncogene tyrosine-protein kinase Src (Homo sapiens) (UniProt P12931); test: Inhibition of SRC at 1 uM
# [23] = target: Tyrosine-protein kinase SYK (Homo sapiens) (UniProt P43405); test: Inhibition of SYK at 1 uM
# [24] = target: TGF-beta receptor type-1 (Homo sapiens) (UniProt P36897); test: Inhibition of TGFBR1 at 1 uM
# [25] = target: Angiopoietin-1 receptor (Homo sapiens) (UniProt Q02763); test: Inhibition of Tie2 at 1 uM
# [26] = target: Vascular endothelial growth factor receptor 2 (Homo sapiens) (UniProt P35968); test: Inhibition of VEGFR2 at 1 uM
# [27] = target: Tyrosine-protein kinase ZAP-70 (Homo sapiens) (UniProt P43403); test: Inhibition of ZAP70 at 1 uM
# [28] = target: T2, ALK tyrosine kinase receptor (Homo sapiens, UniProt Q9UM73); test: Inhibition of ALK
# [29] = target: T2, ALK tyrosine kinase receptor; test: Inhibition of autophosphorylation of NPM-ALK in human Karpas-299 cells; assay type: cell-based
# Insulin receptor [30] = target: T1, Insulin receptor; test: Inhibition of IR
# [31] = target: High affinity nerve growth factor receptor (Homo sapiens) (UniProt P04629); test: Inhibition of TRKA at 1 uM
# [32] = target: Tyrosine-protein kinase ABL1 (Homo sapiens) (UniProt P00519); test: Inhibition of ABL1 at 1 uM
# [33] = test system: Tyrosine-protein kinase ABL1 (Homo sapiens), P00519 [T315I]; test: Inhibition of ABL1 T315I at 1 uM
# [34] = target: Activin receptor type-1 (Homo sapiens) (UniProt Q04771); test: Inhibition of ACVR1 at 1 uM
# [35] = target: RAC-alpha serine/threonine-protein kinase (Homo sapiens) (UniProt P31749); test: Inhibition of AKT1 at 1 uM
# [36] = target: RAC-beta serine/threonine-protein kinase (Homo sapiens) (UniProt P31751); test: Inhibition of AKT2 at 1 uM
# Sequence of RAC-beta serine/threonine-protein kinase (Homo sapiens) (P31751 whole entry): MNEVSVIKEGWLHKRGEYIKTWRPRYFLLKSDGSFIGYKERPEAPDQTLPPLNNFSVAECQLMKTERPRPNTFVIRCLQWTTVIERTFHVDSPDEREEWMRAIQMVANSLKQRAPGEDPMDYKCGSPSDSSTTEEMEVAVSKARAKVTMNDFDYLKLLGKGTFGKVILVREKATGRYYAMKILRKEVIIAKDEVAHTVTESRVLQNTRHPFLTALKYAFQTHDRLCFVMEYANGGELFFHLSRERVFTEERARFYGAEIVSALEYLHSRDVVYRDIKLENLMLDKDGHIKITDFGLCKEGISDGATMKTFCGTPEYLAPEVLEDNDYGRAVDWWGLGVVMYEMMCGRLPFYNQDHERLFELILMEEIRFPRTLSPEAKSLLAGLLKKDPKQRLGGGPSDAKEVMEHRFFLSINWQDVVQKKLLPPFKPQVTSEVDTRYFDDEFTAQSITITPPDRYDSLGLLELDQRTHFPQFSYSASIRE
# [37] = target: RAC-gamma serine/threonine-protein kinase (Homo sapiens) (UniProt Q9Y243); test: Inhibition of AKT3 at 1 uM
# [38] = target: Tyrosine-protein kinase receptor UFO (Homo sapiens) (UniProt P30530); test: Inhibition of AXL at 1 uM
# [39] = target: Serine/threonine-protein kinase B-raf (Homo sapiens) (UniProt P15056); test: Inhibition of BRAF at 1 uM
# [40] = test system: Serine/threonine-protein kinase B-raf (Homo sapiens), P15056 [V600E]; test: Inhibition of BRAF V600E at 1 uM
# [41] = target: Tyrosine-protein kinase BTK (Homo sapiens) (UniProt Q06187); test: Inhibition of BTK at 1 uM
# [42] = target: Macrophage colony-stimulating factor 1 receptor (Homo sapiens) (UniProt P07333); test: Inhibition of CSF1R at 1 uM
# [43] = target: Ephrin type-A receptor 2 (Homo sapiens) (UniProt P29317); test: Inhibition of EPHA2 at 1 uM
# [44] = target: Ephrin type-A receptor 3 (Homo sapiens) (UniProt P29320); test: Inhibition of EPHA3 at 1 uM
# [45] = target: Receptor tyrosine-protein kinase erbB-2 (Homo sapiens) (UniProt P04626); test: Inhibition of ERBB2 at 1 uM
# [46] = target: Receptor tyrosine-protein kinase erbB-4 (Homo sapiens) (UniProt Q15303); test: Inhibition of ERBB4 at 1 uM
# [47] = target: Fibroblast growth factor receptor 1 (Homo sapiens) (UniProt P11362); test: Inhibition of FGFR1 at 1 uM
# [48] = target: Fibroblast growth factor receptor 4 (Homo sapiens) (UniProt P22455); conditions: 1 uM
# Description: Inhibition of FGFR4 at 1 uM
# [49] = target: Platelet-derived growth factor receptor beta (Homo sapiens) (UniProt P09619); conditions: 1 uM
# Description: Inhibition of PDGFR beta at 1 uM
# T1 sequence (P06213 28-758 limits assumed): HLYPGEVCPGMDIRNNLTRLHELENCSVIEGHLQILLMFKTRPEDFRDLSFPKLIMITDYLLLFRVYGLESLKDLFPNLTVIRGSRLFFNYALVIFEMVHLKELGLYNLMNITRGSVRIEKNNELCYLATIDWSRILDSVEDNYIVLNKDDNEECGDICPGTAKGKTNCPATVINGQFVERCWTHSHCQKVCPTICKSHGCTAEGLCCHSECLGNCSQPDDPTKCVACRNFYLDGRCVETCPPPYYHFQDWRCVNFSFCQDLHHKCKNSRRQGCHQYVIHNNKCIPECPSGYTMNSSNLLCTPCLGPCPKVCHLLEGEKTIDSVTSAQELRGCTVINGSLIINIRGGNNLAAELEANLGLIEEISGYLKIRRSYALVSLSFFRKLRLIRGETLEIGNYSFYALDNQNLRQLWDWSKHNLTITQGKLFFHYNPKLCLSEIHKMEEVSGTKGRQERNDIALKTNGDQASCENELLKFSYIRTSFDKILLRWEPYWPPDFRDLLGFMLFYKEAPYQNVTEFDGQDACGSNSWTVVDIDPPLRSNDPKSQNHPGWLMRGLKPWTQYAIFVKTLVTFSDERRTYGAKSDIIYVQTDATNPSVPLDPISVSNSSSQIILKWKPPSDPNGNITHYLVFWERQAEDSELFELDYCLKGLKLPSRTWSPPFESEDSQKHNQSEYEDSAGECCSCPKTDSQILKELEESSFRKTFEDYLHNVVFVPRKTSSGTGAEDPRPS
# T1 sequence (P06213 763-1382 limits assumed): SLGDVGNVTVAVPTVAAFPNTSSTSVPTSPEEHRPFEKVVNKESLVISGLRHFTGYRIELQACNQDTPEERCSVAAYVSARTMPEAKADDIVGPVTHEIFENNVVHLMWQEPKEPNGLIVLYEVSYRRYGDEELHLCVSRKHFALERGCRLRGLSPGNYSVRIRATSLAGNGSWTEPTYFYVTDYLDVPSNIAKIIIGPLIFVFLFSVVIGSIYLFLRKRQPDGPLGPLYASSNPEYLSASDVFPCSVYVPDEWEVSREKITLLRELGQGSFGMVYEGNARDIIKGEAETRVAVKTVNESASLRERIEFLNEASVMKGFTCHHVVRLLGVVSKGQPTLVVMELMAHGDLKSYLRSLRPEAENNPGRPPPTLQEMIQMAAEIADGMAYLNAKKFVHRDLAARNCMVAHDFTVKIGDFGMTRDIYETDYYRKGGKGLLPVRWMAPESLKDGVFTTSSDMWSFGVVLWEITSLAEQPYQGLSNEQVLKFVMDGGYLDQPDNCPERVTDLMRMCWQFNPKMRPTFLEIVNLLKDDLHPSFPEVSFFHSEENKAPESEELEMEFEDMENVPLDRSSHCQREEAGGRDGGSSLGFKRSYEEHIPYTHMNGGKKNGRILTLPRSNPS
# Sequence of Glycogen synthase kinase-3 alpha (Homo sapiens) (P49840 2-483 limits assumed): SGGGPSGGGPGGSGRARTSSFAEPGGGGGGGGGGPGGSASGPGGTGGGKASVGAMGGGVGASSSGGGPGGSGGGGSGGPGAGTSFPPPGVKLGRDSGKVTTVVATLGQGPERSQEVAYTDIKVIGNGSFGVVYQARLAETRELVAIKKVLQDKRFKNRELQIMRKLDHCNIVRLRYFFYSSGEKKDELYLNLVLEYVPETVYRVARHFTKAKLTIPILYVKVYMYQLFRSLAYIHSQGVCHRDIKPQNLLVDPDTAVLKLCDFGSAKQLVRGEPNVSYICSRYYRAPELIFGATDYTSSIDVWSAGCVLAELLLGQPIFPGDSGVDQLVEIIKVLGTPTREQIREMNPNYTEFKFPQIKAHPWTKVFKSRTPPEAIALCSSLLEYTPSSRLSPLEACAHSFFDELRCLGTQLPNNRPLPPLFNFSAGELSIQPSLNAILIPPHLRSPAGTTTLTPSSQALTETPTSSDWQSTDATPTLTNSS
# Sequence of Receptor-type tyrosine-protein kinase FLT3 (Homo sapiens) (P36888 whole entry): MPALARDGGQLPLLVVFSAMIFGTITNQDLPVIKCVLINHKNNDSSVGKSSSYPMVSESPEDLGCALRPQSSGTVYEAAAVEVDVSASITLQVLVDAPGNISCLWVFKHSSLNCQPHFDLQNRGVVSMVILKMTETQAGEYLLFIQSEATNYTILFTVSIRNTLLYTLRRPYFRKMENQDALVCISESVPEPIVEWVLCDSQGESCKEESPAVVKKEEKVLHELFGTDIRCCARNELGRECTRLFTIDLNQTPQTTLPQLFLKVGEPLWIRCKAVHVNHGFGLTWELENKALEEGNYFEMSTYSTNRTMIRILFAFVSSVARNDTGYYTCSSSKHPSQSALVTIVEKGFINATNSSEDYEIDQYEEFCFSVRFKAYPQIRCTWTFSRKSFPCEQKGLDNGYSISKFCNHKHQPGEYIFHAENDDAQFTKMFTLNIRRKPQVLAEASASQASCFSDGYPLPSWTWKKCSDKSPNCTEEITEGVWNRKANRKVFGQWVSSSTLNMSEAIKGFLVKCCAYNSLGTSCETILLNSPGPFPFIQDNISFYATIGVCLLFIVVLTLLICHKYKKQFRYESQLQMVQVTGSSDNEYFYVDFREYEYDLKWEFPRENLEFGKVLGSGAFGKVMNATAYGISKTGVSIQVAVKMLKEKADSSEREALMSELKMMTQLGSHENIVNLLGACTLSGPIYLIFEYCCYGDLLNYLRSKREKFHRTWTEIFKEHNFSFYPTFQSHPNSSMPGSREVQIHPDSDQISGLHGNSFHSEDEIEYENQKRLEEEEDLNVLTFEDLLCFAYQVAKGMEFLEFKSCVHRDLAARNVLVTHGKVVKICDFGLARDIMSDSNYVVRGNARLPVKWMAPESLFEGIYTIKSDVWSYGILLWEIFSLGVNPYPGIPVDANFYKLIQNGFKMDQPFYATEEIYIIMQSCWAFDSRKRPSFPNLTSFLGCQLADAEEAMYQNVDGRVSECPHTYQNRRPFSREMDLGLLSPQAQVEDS
structure (smiles),measurement,setting,value
COCCN1CCc2cc(Nc3ncc(Cl)c(N[C@@H]4CCCC[C@H]4N(C)S(C)(=O)=O)n3)c(OC)cc2CC1,inhibition,[1],99%
same,inhibition,[2],99%
same,inhibition,[3],< 65%
same,inhibition,Insulin receptor [4],70%
same,inhibition,[5],< 65%
same,inhibition,[6],< 65%
same,inhibition,[7],97%
same,inhibition,[8],< 65%
same,inhibition,[9],98%
same,inhibition,[10],96%
same,inhibition,[11],92%
same,inhibition,[12],94%
same,inhibition,[13],< 65%
same,inhibition,[14],< 65%
same,inhibition,[15],< 65%
same,inhibition,[16],< 65%
same,inhibition,[17],< 65%
same,inhibition,[18],< 65%
same,inhibition,[19],< 65%
same,inhibition,[20],96%
same,inhibition,[21],79%
same,inhibition,[22],< 65%
same,inhibition,[23],< 65%
same,inhibition,[24],< 65%
same,inhibition,[25],< 65%
same,inhibition,[26],< 65%
same,inhibition,[27],< 65%
same,IC50,[28],0.003 µM
same,IC50,[29],0.015 µM
same,IC50,Insulin receptor [30],0.46 µM
same,inhibition,[31],< 65%
same,inhibition,[32],< 65%
same,inhibition,[33],< 65%
same,inhibition,[34],< 65%
same,inhibition,[35],< 65%
same,inhibition,[36],< 65%
same,inhibition,[37],< 65%
same,inhibition,[38],< 65%
same,inhibition,[39],< 65%
same,inhibition,[40],< 65%
same,inhibition,[41],< 65%
same,inhibition,[42],98%
same,inhibition,[43],< 65%
same,inhibition,[44],< 65%
same,inhibition,[45],< 65%
same,inhibition,[46],98%
same,inhibition,[47],100%
same,inhibition,[48],100%
same,inhibition,[49],100%
COCCN1CCc2cc(Nc3ncc(Cl)c(N[C@@H]4CCCC[C@H]4NS(C)(=O)=O)n3)c(OC)cc2CC1,inhibition,[1],< 65%
same,inhibition,[2],82%
same,inhibition,[3],< 65%
same,inhibition,Insulin receptor [4],< 65%
same,inhibition,[5],< 65%
same,inhibition,[6],< 65%
same,inhibition,[7],< 65%
same,inhibition,[8],< 65%
same,inhibition,[9],< 65%
same,inhibition,[10],< 65%
same,inhibition,[11],< 65%
same,inhibition,[12],< 65%
same,inhibition,[13],< 65%
same,inhibition,[14],< 65%
same,inhibition,[15],< 65%
same,inhibition,[16],< 65%
same,inhibition,[17],< 65%
same,inhibition,[18],< 65%
same,inhibition,[19],< 65%
same,inhibition,[20],94%
same,inhibition,[21],< 65%
same,inhibition,[22],< 65%
same,inhibition,[23],< 65%
same,inhibition,[24],< 65%
same,inhibition,[25],< 65%
same,inhibition,[26],< 65%
same,inhibition,[27],< 65%
same,IC50,[28],0.006 µM
same,IC50,[29],0.065 µM
same,IC50,Insulin receptor [30],1.4 µM
same,inhibition,[31],< 65%
same,inhibition,[32],< 65%
same,inhibition,[33],< 65%
same,inhibition,[34],< 65%
same,inhibition,[35],< 65%
same,inhibition,[36],< 65%
same,inhibition,[37],< 65%
same,inhibition,[38],< 65%
same,inhibition,[39],< 65%
same,inhibition,[40],< 65%
same,inhibition,[41],< 65%
same,inhibition,[42],< 65%
same,inhibition,[43],< 65%
same,inhibition,[44],< 65%
same,inhibition,[45],< 65%
same,inhibition,[46],74%
same,inhibition,[47],86%
same,inhibition,[48],< 65%
same,inhibition,[49],< 65%

# Reference: ChEMBL document CHEMBL1795227, “Methanesulfonamido-cyclohexylamine derivatives of 2,4-diaminopyrimidine as potent ALK inhibitors” (Bioorg Med Chem Lett, 2011)
